# Reference: ChEMBL document CHEMBL1156335, “Inhibition studies of a beta-carbonic anhydrase from Brucella suis with a series of water soluble glycosyl sulfanilamides” (Bioorg Med Chem Lett, 2010)
# Activity calls are given as the source filed them. The rule behind the calls is not given here.
# Target: T1, Histidinol dehydrogenase (Brucella suis biovar 1 (strain 1330)) (UniProt Q8G2R2)
# T1 sequence (whole entry): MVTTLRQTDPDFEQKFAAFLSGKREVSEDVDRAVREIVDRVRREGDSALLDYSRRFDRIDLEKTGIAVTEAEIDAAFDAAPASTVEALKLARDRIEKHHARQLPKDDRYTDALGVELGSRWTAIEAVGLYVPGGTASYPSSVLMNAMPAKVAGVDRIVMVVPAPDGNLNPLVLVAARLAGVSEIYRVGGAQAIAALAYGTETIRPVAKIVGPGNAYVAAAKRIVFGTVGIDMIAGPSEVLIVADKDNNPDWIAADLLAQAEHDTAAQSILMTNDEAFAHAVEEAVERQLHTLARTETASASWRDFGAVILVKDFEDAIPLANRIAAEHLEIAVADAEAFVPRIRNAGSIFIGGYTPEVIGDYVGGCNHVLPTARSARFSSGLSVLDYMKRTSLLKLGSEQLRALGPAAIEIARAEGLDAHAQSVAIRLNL
# Assay: Antibacterial activity against Brucella suis at 10 uM after 8 to 11 days
# Assay type: functional
smiles,measurement,value
C[C@H]1O[C@@H](Nc2ccc(S(N)(=O)=O)cc2)[C@@H](O)[C@@H](O)[C@@H]1O,Activity,Active
